Tests used:
α1d-AR = molecular target: T1, α1d-AR (Homo sapiens, UniProt P25100); assay: α1-Adrenergic receptor radio-ligand (125I-HEAT) binding assay, α1d subtype; conditions: COS-7 cell membranes, 125I-HEAT; read-out: Receptor Binding, Ki α1d-AR
T1 construct: expressed in transfected cells; host or cells: COS-7
T1 sequence (P25100 1-572): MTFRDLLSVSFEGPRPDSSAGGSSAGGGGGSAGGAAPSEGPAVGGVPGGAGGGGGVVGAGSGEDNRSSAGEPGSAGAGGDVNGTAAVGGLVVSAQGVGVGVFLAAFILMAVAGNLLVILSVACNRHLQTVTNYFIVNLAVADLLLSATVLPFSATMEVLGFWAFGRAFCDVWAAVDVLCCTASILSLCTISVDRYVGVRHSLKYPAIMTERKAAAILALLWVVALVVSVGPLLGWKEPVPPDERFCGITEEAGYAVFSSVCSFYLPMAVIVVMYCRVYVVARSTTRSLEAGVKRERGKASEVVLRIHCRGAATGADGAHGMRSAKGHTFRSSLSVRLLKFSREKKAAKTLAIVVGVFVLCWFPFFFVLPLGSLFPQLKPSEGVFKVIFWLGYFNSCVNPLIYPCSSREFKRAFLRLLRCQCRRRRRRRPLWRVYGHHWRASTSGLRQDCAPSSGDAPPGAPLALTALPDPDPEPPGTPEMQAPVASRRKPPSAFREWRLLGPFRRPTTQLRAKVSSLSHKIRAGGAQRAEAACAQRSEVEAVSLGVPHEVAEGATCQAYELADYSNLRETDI

α1a-AR = molecular target: T2, α1a-AR (Homo sapiens, UniProt P35348); assay: α1-Adrenergic receptor radio-ligand (125I-HEAT) binding assay, α1a subtype; conditions: COS-7 cell membranes, 125I-HEAT
T2 construct: expressed in transfected cells; host or cells: COS-7
T2 sequence (P35348 1-466): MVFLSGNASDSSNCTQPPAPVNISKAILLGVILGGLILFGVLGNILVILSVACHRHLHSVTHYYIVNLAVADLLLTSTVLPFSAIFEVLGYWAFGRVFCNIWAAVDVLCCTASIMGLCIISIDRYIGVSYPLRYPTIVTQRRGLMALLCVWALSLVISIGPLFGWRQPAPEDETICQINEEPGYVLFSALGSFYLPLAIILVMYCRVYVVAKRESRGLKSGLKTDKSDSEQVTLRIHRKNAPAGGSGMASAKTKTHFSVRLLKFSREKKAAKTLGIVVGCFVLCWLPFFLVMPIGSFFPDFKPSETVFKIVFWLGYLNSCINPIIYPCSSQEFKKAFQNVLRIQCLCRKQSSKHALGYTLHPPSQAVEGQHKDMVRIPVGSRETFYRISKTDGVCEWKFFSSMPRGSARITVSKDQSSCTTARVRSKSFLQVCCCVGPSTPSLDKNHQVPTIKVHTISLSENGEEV
In short: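 Membranes from COS-7 cells transfected with the α1a-AR were incubated with 50 pM final ¹²⁵I-HEAT and test compound (1 pM–10 μM final, half-log steps) in Tris/EDTA/NaCl buffer pH 7.4 for 1 hr at rt. Bound radioactivity was counted after GF/C filtration, in triplicate.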

COc1ccc(S(=O)(=O)N[C@H]2CC[C@@H](N3CCN(c4ccccc4OCC(F)(F)F)CC3)CC2)cc1OC [Cpd 69, 3,4-Dimethoxy-N-cis-(4-{4-[2-(2,2,2-trifluoro-ethoxy)-phenyl]-piperazin-1-yl}-cyclohexyl)-benzenesulfonamide]
Ki (α1d-AR): 0.92 nM | Ki (α1a-AR): 1.2 nM
